We go through 1 compound from patent US20140357688A1, “METHOD FOR INHIBITING EZH2 EXPRESSION IN BREAST CANCER CELLS” (Yung Shin Pharm. Ind. Co., Ltd., priority 2013, published 2014).

Holding throughout (type): cell-based, human
In one test the test system is Ras. In words: Ras activation (Raf-RBD pull-down). The settings on record: 3 μM YC-1. As for the experimental part: (A) Cells were pretreated with DMSO (as control), Bay-43-9006 (Bay, 10 μM), farnyesyl thiosalicylic acid (FTS, 10 μM), Src inhibitor I (SrcI, 10 μM), and genistein (Gen, 10 μM), then followed by YC-1 (3 μM) incubation for 6 h. Cells were harvested and lysed for western blot analysis (left, right) and cell viability (middle). The levels of protein expression were quantitated and shown under blots. (B) MDA-MB-468 cells were transfected with shRNA of Raf-1 or Src. After stimulation of 3 μM YC-1 for 4 h, cell protein was subjected to western blot analysis. (C) Cells were incubated with 3 μM YC-1 for indicated time and then lysed for detection of Src, Raf-1, and MEK activation by using specific anti-phosphorylated antibodies. (D) Cells were treated with 3 μM YC-1 for indicated time. Cells were lysed and detected Ras activation by using Raf-RBD conjugated agarose to pull-down Ras-GTP. The total Ras in cell lysate was also detected. […] Cells were lysed and protein expression was determined by western blot analysis. (F) Cells were induced by 3 μM YC-1 in the presence of indicated inhibitors. Cells were lysed and subjected to EZH2 ubiquitination assay.
Ras-GTP has a high affinity with Ras binding domain of Raf-1 (Raf-RBD). Accordingly, GST fusion protein containing Raf-RBD was applied to detect Ras activation. […]

The subject of the next test is MDA-MB-468 cells. Briefly: Colony formation (clonogenic) assay. As for the experimental part: (A) Cells were treated with indicated concentration of YC-1 for 6, 24, and 48 h. Cell viability was determined by MTT method. (B) MDA-MB-468 cells were treated with 3 μM YC-1 for 0, 6, and 12 h, and then stained with fluorescence diacetate (FDA) and propidium iodide (PI). Cell morphology was assessed by fluorescence microscopy with magnification ×20 (upper 3 rows) or ×40 (lowest row). (C) MDA-MB-468 cells were treated with 3 μM YC-1 for 24 h, cells were lysed and subjected to western blot analysis described in Materials and Methods. β-actin is a loading control. Blots were representative of results from three independent experiments. (D) Cells were treated with vehicle (DMSO, as control) or 3 μM YC-1 for 6 h. The cell cycles were analyzed by flow cytometry. (E) Cells were treated with indicated concentration of YC-1 and then performed with clonogenic assay.
After exposure to YC-1, cells were collected and washed extensively with PBS. Five hundred cells per well was seeded onto 6-well plates and maintained in a 37° C., 5% CO2 incubator. Three weeks later, colonies were fixed with formaldehyde (3.7%, v/v) and stained with crystal violet (0.5%, w/v), then counted.

Another test concerns c-Cbl. In words: Western blot of c-Cbl phosphorylation and expression. As for the experimental part: (A) c-Cbl knockdown MDA-MB-468 cells were treated with 3 μM YC-1 for 4 h. Cell were harvested for detection of protein expression. (B) Cells were treated with 3 μM YC-1 for indicated time. Cells were collected and c-Cbl phosphorylation was detected. […] (D) Cells were pretreated with MG-132 and followed by 3 μM YC-1 induction for indicated time. Cells were harvested and lysed for immunoprecipitation assay. The association between c-Cbl and EZH2 were determined by western blotting analysis and probed with anti-EZH2 or anti-c-Cbl antibody. Membranes were stripped and reprobed with anti-c-Cbl or anti-EZH2 antibody to check the input. […] Then cells were collected and lysate protein was subjected for the detection of the c-Cbl-EZH2 complexes. Cells were lysed in PBS containing proteinase inhibitor and phosphatase inhibitors and sonication. Protein concentration was measured using the Bio-Rad protein assay kit (Bio-Rad Laboratories, Hercules, Calif., USA). Lysate protein was separated by electrophoresis of SDS-PAGE and transferred to Immobilon P membrane (EMD Millipore). The membranes were incubated with appropriate primary antibodies and horseradish peroxidase-conjugated secondary antibodies (EMD Millipore). The signaling was visualized using Chemiluminescence substrate kit (EMD Millipore) and collected by the Luminesence image analyzer, LAS4000 (Fuji Photo Film Co., Tokyo, Japan). The band intensities were analyzed and quantified by the Multi Gauge software (Fuji Photo Film).
For orientation: In western blotting, separated proteins are transferred to a membrane and probed.

`OCc1ccc(-c2nn(Cc3ccccc3)c3ccccc23)o1` [YC-1, 3-(5′-hydroxymethyl-2′-furyl)-1-benzyl indazole]: the Ras activation entry with Ras is listed as “could not induce Ras activation”. For the same compound, the clonogenic activity result in the test with MDA-MB-468 cells is recorded as “potent ability in attenuation of tumor formation”. Moreover, the c-Cbl protein expression result in the test on c-Cbl (3 μM YC-1) was “inhibited”. Moreover, in the test on c-Cbl (3 μM YC-1, after 1 h), the “c-Cbl Tyr731 and Tyr774 phosphorylation” value is “rapid phosphorylation”.
